# Data reported in patent publication US20190049428A1, “PLATELET AGGREGABILITY ANALYZING DEVICE, PLATELET AGGREGABILITY ANALYZING SYSTEM, PLATELET AGGREGABILITY ANALYZING PROGRAM, AND METHOD OF ANALYZING PLATELET AGGREGABILITY” (Sony Corporation, priority 2016, published 2019).
# System: platelets in whole blood
# Test: Blood coagulability measurement of whole blood by dielectric constant (dielectric coagulometer, DiCA-Ex / DiCA-In)
# Type: cell-based, human (healthy subject)
# Method: Measurement of blood coagulability was conducted using the blood put to reaction in the experiment of 3-2 above. The measurement was carried out using a blood coagulation system analyzing device (dielectric coagulometer prototype No. 2), for performing the measurement of dielectric constant of the sample as aforementioned, and a comprehensive hemostatic ability measuring system ROTEM (registered trademark), at a measurement temperature of 37° C.
# In the case of the blood coagulation system analyzing device, measurement of DiCA-Ex to which an aqueous calcium solution (0.2 M Ca) and a commercialized extrinsic stimulus reagent (100 fold dilution+PBS (v/v=1/5)) were added immediately before the start of measurement, and measurement of DiCA-In to which an aqueous calcium solution (0.2 M Ca) and a commercialized intrinsic stimulus reagent (+PBS(v/v=1/5)) were added, were conducted. The amount was unifiedly set to be 12 uL per 180 uL of blood.
# The time of 10 minutes determinative of coagulation time was taken as an investigation time (FIG. 12-1), the maximum value was taken as 1, and the reciprocal of the difference therefrom was calculated (calculated CF), the results being depicted in FIG. 12-2. An average value obtained in the case where NaCl was added (control) was 17.7, whereas an average value obtained in the case where the platelet inducing substance was added was 12.7 (n=4).
Compound,difference between control and platelet inducing substance (platelet contribution part) (combination with ADP),"amplitude of time variation in dielectric constant (normalized) at 100 kHz (whole blood, versus +NaCl control)"
CCCCC[C@H](O)/C=C/[C@H]1[C@H](O)CC(=O)[C@@H]1CCCCCCC(=O)O [prostaglandin E1],this difference is reduced,–
thrombin receptive activated protein [TRAP],–,the amplitude is raised
